For four compounds, IC50 and viability, T/C results are on record in PubChem BioAssay AID2060892 (Molecular Pharmacology Branch, DTP, NCI, 2025).

Each structure is given as a SMILES string.

The assay concerns HOP-62 complex spheroids with HUVEC/MSC, viability. The assay is described as follows: Anticancer human tumor HOP-62 cell line growth inhibition [RAS].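 As to all read-outs here: spheroids exposed to agents for seven days before readout.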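 As to viability, T/C: 100% = DMSO vehicle control viability.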 The following applies: for viability, T/C: stronger effect = lower value. The method, boiled down:
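Tumour cells grown as complex spheroids with HUVEC endothelial cells and mesenchymal stem cells, treated with RAS pathway inhibitor combinations. Each agent spans half-log steps from near clinical Cmax, or 10 microM where Cmax is unknown.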

The mark [1] stands for this setting: curve of first compound, second compound 0.000949 µM.
[2] abbreviates: curve of first compound, second compound 0.003 µM.
[3] abbreviates: curve of first compound, second compound 0.00949 µM.
Where [4] appears, read: curve of first compound, second compound 0.03 µM.
Where [5] appears, read: curve of first compound, second compound 0.0949 µM.
Where [6] appears, read: curve of first compound, second compound 0.3 µM.
Setting [7] is: second compound 0.000949 µM, first compound 0.00316 µM.
Setting [8] is: second compound 0.000949 µM, first compound 0.01 µM.
[9] abbreviates: second compound 0.000949 µM, first compound 0.0316 µM.
Where [10] appears, read: second compound 0.000949 µM, first compound 0.1 µM.
Where [11] appears, read: second compound 0.003 µM, first compound 0.00316 µM.
The mark [12] stands for this setting: second compound 0.003 µM, first compound 0.01 µM.
Where [13] appears, read: second compound 0.003 µM, first compound 0.0316 µM.
The mark [14] stands for this setting: second compound 0.003 µM, first compound 0.1 µM.
Setting [15] is: second compound 0.00949 µM, first compound 0.00316 µM.
[16] abbreviates: second compound 0.00949 µM, first compound 0.01 µM.
The mark [17] stands for this setting: second compound 0.00949 µM, first compound 0.0316 µM.
The mark [18] stands for this setting: second compound 0.00949 µM, first compound 0.1 µM.
The mark [19] stands for this setting: second compound 0.03 µM, first compound 0.00316 µM.
Where [20] appears, read: second compound 0.03 µM, first compound 0.01 µM.
The mark [21] stands for this setting: second compound 0.03 µM, first compound 0.0316 µM.
The mark [22] stands for this setting: second compound 0.03 µM, first compound 0.1 µM.
Setting [23] is: second compound 0.0949 µM, first compound 0.00316 µM.
Setting [24] is: second compound 0.0949 µM, first compound 0.01 µM.
Where [25] appears, read: second compound 0.0949 µM, first compound 0.0316 µM.
The mark [26] stands for this setting: second compound 0.0949 µM, first compound 0.1 µM.
Where [27] appears, read: second compound 0.3 µM, first compound 0.00316 µM.
Setting [28] is: second compound 0.3 µM, first compound 0.01 µM.
[29] abbreviates: second compound 0.3 µM, first compound 0.0316 µM.
[30] abbreviates: second compound 0.3 µM, first compound 0.1 µM.

Consider `C=CC(=O)Nc1cc(Nc2nccc(-c3cn(C)c4ccccc34)n2)c(OC)cc1N(C)CCN(C)C` + CCn1c(-c2cc(N3CCN(C)CC3)cnc2C(C)OC)c2c3cc(ccc31)-c1csc(n1)CC(NC(=O)C1CC1C)C(=O)N1CCCC(N1)C(=O)OCC(C)(C)C2, for which the IC50 runs as follows: under setting [1], more than 1 µM; under setting [2], 0.688 µM; under setting [3], 0.278 µM; under setting [4], 0.00638 µM; under setting [5], less than 0.00316 µM; under setting [6], less than 0.00316 µM. Further, the viability, T/C is, setting by setting: under setting [7], 119%; under setting [8], 114%; under setting [9], 85.8%; under setting [10], 120%; (second compound 0.000949 µM, first compound 0.316 µM) 106%; (second compound 0.000949 µM, first compound 1 µM) 66.4%. Further, the viability, T/C was 97.4% under setting [11]; 88.6% under setting [12]; 74.4% under setting [13]; 89.5% under setting [14]; 75.9% (second compound 0.003 µM, first compound 0.316 µM); 37.4% (second compound 0.003 µM, first compound 1 µM). Besides, the viability, T/C reads like this: under setting [15], 76.6%; under setting [16], 62.5%; under setting [17], 59.7%; under setting [18], 66.5%; (second compound 0.00949 µM, first compound 0.316 µM) 47.3%; (second compound 0.00949 µM, first compound 1 µM) 33.2%. Also, the viability, T/C by setting is: under setting [19], 52%; under setting [20], 49.2%; under setting [21], 42.7%; under setting [22], 43.3%; (second compound 0.03 µM, first compound 0.316 µM) 26.6%; (second compound 0.03 µM, first compound 1 µM) 30.1%. In addition, the viability, T/C was 40.2% under setting [23]; 44.1% under setting [24]; 33.8% under setting [25]; 32.1% under setting [26]; 26.4% (second compound 0.0949 µM, first compound 0.316 µM); 24% (second compound 0.0949 µM, first compound 1 µM). Also, the viability, T/C is 42.1% under setting [27]; 35.6% under setting [28]; 37.4% under setting [29]; 33.7% under setting [30]; 22.9% (second compound 0.3 µM, first compound 0.316 µM); 22.7% (second compound 0.3 µM, first compound 1 µM).
Regarding `C=CC(=O)Nc1cc(Nc2nccc(-c3cn(C)c4ccccc34)n2)c(OC)cc1N(C)CCN(C)C`, the viability, T/C was 103% [middle of 4 runs] (compound 0.00316 µM); 101% [middle of 4 runs] (compound 0.01 µM); 108% [middle of 4 runs] (compound 0.0316 µM); 110% [middle of 4 runs] (compound 0.1 µM); 110% [middle of 4 runs] (compound 0.316 µM); 103% [middle of 4 runs] (compound 1 µM). Further, the IC50 (curve of compound) was more than 1 µM.
As to `CC(C)n1nc(-c2ccc3oc(N)nc3c2)c2c(N)ncnc21` + CCn1c(-c2cccnc2C(C)OC)c2c3cc(ccc31)N1CCOC(CC(NC(=O)C(C(C)C)N(C)C(=O)C3(F)CCN(C(=O)C#CC(C)(C)N(C)C)CC3)C(=O)N3CCCC(N3)C(=O)OCC(C)(C)C2)C1, the IC50 reads like this: under setting [1], 0.0316 µM; under setting [2], 0.0118 µM; under setting [3], 0.0109 µM; under setting [4], 0.0173 µM; under setting [5], 0.007 µM; under setting [6], 0.00672 µM. Further, the viability, T/C was 118% (second compound 0.000949 µM, first compound 0.000316 µM); 107% (second compound 0.000949 µM, first compound 0.001 µM); 64.2% under setting [7]; 74.7% under setting [8]; 55.6% under setting [9]; 30.6% under setting [10]. The viability, T/C was 105% (second compound 0.003 µM, first compound 0.000316 µM); 81% (second compound 0.003 µM, first compound 0.001 µM); 58.8% under setting [11]; 56.3% under setting [12]; 45.7% under setting [13]; 25.4% under setting [14]. Moreover, the viability, T/C was 94.9% (second compound 0.00949 µM, first compound 0.000316 µM); 64% (second compound 0.00949 µM, first compound 0.001 µM); 65.3% under setting [15]; 53.4% under setting [16]; 44.5% under setting [17]; 26.1% under setting [18]. In addition, the viability, T/C is 80.7% (second compound 0.03 µM, first compound 0.000316 µM); 75.6% (second compound 0.03 µM, first compound 0.001 µM); 71.1% under setting [19]; 67.7% under setting [20]; 30.1% under setting [21]; 30.6% under setting [22]. The viability, T/C (second compound 0.0949 µM, first compound 0.000316 µM) is 85.7%; the viability, T/C (second compound 0.0949 µM, first compound 0.001 µM) was 67.8%; the viability, T/C under setting [23] was 61%; the viability, T/C under setting [24] was 52.2%; the viability, T/C under setting [25] is 25.6%; the viability, T/C under setting [26] was 30%. Besides, the viability, T/C by setting is: (second compound 0.3 µM, first compound 0.000316 µM) 75.7%; (second compound 0.3 µM, first compound 0.001 µM) 77.8%; under setting [27], 59.8%; under setting [28], 45.3%; under setting [29], 32.2%; under setting [30], 30.6%.
With `CCN1CCN(Cc2ccc(Nc3ncc(F)c(-c4cc(F)c5nc(C)n(C(C)C)c5c4)n3)nc2)CC1`, the viability, T/C is, setting by setting: (compound 0.00316 µM) 103% [middle of 4 runs]; (compound 0.01 µM) 104% [middle of 4 runs]; (compound 0.0316 µM) 103% [middle of 4 runs]. Besides, the IC50 (curve of compound) was more than 1 µM.

What is called IC50 is the concentration needed to halve the response being measured. As usually defined, the viability, T/C is the ratio of treated to control.
